Laboratory results as given in patent US12077503B2, “Substituted cyclic amides and their use as herbicides” (FMC CORPORATION, priority 2015, dated 2024).

Experiments:
Format in all cases: in vivo
Kochia (Kochia scoparia) [1] = assay: Test A preemergence
Outline: (§1)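 Seeds sprayed preemergence with a directed soil spray, or plants at 2 to 10 cm height and one- to two-leaf stage sprayed postemergence, with test chemicals in a non-phytotoxic solvent mixture containing surfactant, in loam soil–sand blend. Injury rated visually against untreated controls after about 10 d in greenhouse, 0 (no effect) to 100 (complete control).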

[2] = system: barnyardgrass (Echinochloa crus-galli); assay: Test A preemergence
Outline: as §1

[3] = system: giant foxtail (Setaria faberii); assay: Test A preemergence
Outline: as §1

[4] = system: pigweed (Amaranthus retroflexus); assay: Test A preemergence
[5] = system: ragweed (common ragweed, Ambrosia elatior); assay: Test A preemergence
Outline: as §1

[6] = system: ryegrass, Italian (Italian ryegrass, Lolium multiflorum); assay: Test A preemergence
Outline: as §1

[7] = system: Galium (catchweed bedstraw, Galium aparine); assay: Test A postemergence; settings: postemergence, 0 to 100 scale (0 no effect, 100 complete control)
Outline: as §1

Kochia (Kochia scoparia) [8] = assay: Test A postemergence; settings: postemergence, 0 to 100 scale (0 no effect, 100 complete control)
Outline: as §1

[9] = system: barnyardgrass (Echinochloa crus-galli); assay: Test A postemergence; settings: postemergence, 0 to 100 scale (0 no effect, 100 complete control)
Outline: as §1

[10] = system: blackgrass (Alopecurus myosuroides); assay: Test A postemergence; settings: postemergence, 0 to 100 scale (0 no effect, 100 complete control)
Outline: as §1

corn (Zea mays) = assay: Test A postemergence; settings: postemergence, 0 to 100 scale (0 no effect, 100 complete control)
Outline: as §1

[11] = system: giant foxtail (Setaria faberii); assay: Test A postemergence; settings: postemergence, 0 to 100 scale (0 no effect, 100 complete control)
Outline: as §1

[12] = system: pigweed (Amaranthus retroflexus); assay: Test A postemergence; settings: postemergence, 0 to 100 scale (0 no effect, 100 complete control)
Outline: as §1

[13] = system: ragweed (common ragweed, Ambrosia elatior); assay: Test A postemergence; settings: postemergence, 0 to 100 scale (0 no effect, 100 complete control)
Outline: as §1

[14] = system: ryegrass, Italian (Italian ryegrass, Lolium multiflorum); assay: Test A postemergence; settings: postemergence, 0 to 100 scale (0 no effect, 100 complete control)
Outline: as §1

[15] = system: wheat (Triticum aestivum); assay: Test A postemergence; settings: postemergence, 0 to 100 scale (0 no effect, 100 complete control)
Outline: as §1

[16] = system: barnyardgrass (Echinochloa crus-galli); assay: Test B flooded paddy test; settings: Flood, 0 to 100 scale where 0 is no effect and 100 is complete control, 13 to 15 d
Outline: (§2)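 Evaluation by eye, against controls, occurred 13–15 d post-treatment in a greenhouse, using a 0 (no effect) to 100 (complete control) scale. Application was into the paddy water, 3 cm deep over the soil, on 2-leaf plants.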

[17] = system: ducksalad (Heteranthera limosa); assay: Test B flooded paddy test; settings: Flood, 0 to 100 scale where 0 is no effect and 100 is complete control, 13 to 15 d
Outline: as §2

rice (Oryra sativa) = assay: Test B flooded paddy test; settings: Flood, 0 to 100 scale where 0 is no effect and 100 is complete control, 13 to 15 d
Outline: as §2

[18] = system: sedge, umbrella (small-flower umbrella sedge, Cyperus difformis); assay: Test B flooded paddy test; settings: Flood, 0 to 100 scale where 0 is no effect and 100 is complete control, 13 to 15 d
Outline: as §2

[19] = 125 g ai/ha, Preemergence, visual injury after approximately 10 d, 0 to 100 scale where 0 is no effect and 100 is complete control
[20] = 500 g ai/ha, preemergence, 0 to 100 scale, 0 = no effect, 100 = complete control
[21] = 125 g ai/ha, visual rating after approx. 10 d
[22] = 500 g ai/ha, visual injury, approx. 10 d
[23] = 125 g ai/ha, preemergence, visual rating after approx. 10 d, 0 to 100 scale where 0 is no effect and 100 is complete control
[24] = 125 g ai/ha, visual injury after approximately 10 d

| Structure (SMILES) | Plant response rating, Kochia (Kochia (Kochia scoparia) [1]; [19]) | Plant response rating, Kochia (Kochia (Kochia scoparia) [1]; [20]) | Plant response rating, Barnyardgrass [2, 19] | Plant response rating, Barnyardgrass [2, 20] | Plant response rating, Foxtail, Giant [3, 19] | Plant response rating, Foxtail, Giant [3, 20] | Plant response rating, Pigweed [4, 20] | Plant response rating, Ragweed [5, 20] | Plant response rating, Ryegrass, Italian [6, 20] | Plant response rating, Galium [7, 22] | Plant response rating, Kochia (Kochia (Kochia scoparia) [8]; [22]) | Plant response rating, Barnyardgrass [9, 21] | Plant response rating, Barnyardgrass [9, 22] | Plant response rating, Blackgrass [10, 22] | Plant response rating, Corn (corn (Zea mays); [22]) | Plant response rating, Foxtail, Giant [11, 22] | Plant response rating, Pigweed [12, 22] | Plant response rating, Ragweed [13, 22] | Plant response rating, Ryegrass, Italian [14, 22] | Plant response rating, Wheat [15, 22] | other results |
| --- | --- | --- | --- | --- | --- | --- | --- | --- | --- | --- | --- | --- | --- | --- | --- | --- | --- | --- | --- | --- | --- |
| CCc1cc(C2CNC(=O)C2C(=O)Nc2cccc(F)c2F)cs1 (racemic) [Compound 658] | 0 | 30 | 90 | 90 | 90 | 90 | 50 | 70 | 70 | 60 | 30 | 70 | 90 | 70 | 30 | 60 | 0 | 40 | 60 | 30 | Plant response rating, Pigweed [4, 19]: 0; Plant response rating, Ragweed [5, 19]: 50; Plant response rating, Ryegrass, Italian [6, 19]: 0; Plant response rating, Galium [7, 21]: 60; Plant response rating, Kochia (Kochia (Kochia scoparia) [8]; [21]): 0; Plant response rating, Blackgrass [10, 21]: 40; Plant response rating, Corn (corn (Zea mays); [21]): 0; Plant response rating, Foxtail, Giant [11, 21]: 0; Plant response rating, Pigweed [12, 21]: 0; Plant response rating, Ragweed [13, 21]: 0; Plant response rating, Ryegrass, Italian [14, 21]: 30; Plant response rating, Wheat [15, 21]: 0; Plant response rating, Barnyardgrass ([16]; 250 g ai/ha): 50; Plant response rating, Ducksalad ([17]; 250 g ai/ha): 100; Plant response rating, Rice (rice (Oryra sativa); 250 g ai/ha): 0; Plant response rating, Sedge, Umbrella ([18]; 250 g ai/ha): 0 |
| O=C1NCC(c2cccc(C(F)(F)F)c2)C1C(=O)Nc1ccc(F)cc1Cl (racemic) [Compound 676] | 0 | 0 | 70 | 90 | 80 | 90 | 0 | 0 | 20 | 40 | 0 | 50 | 80 | 40 | 50 | 80 | 0 | 0 | 20 | 20 | Plant response rating, Pigweed [4, 19]: 0; Plant response rating, Ragweed [5, 19]: 0; Plant response rating, Ryegrass, Italian [6, 19]: 0; Plant response rating, Galium [7, 21]: 0; Plant response rating, Kochia (Kochia (Kochia scoparia) [8]; [21]): 0; Plant response rating, Blackgrass [10, 21]: 20; Plant response rating, Corn (corn (Zea mays); [21]): 0; Plant response rating, Foxtail, Giant [11, 21]: 20; Plant response rating, Pigweed [12, 21]: 0; Plant response rating, Ragweed [13, 21]: 0; Plant response rating, Ryegrass, Italian [14, 21]: 0; Plant response rating, Wheat [15, 21]: 0; Plant response rating, Barnyardgrass ([16]; 500 g ai/ha): 80; Plant response rating, Ducksalad ([17]; 500 g ai/ha): 85; Plant response rating, Rice (rice (Oryra sativa); 500 g ai/ha): 15; Plant response rating, Sedge, Umbrella ([18]; 500 g ai/ha): 0 |
| O=C1NCC(c2cccc(Br)c2)C1C(=O)Nc1ccc(F)cc1F (racemic) [Compound 687] | 0 | 40 | 90 | 90 | 90 | 90 | 30 | 0 | 20 | 20 | 30 | 90 | 90 | 40 | 70 | 90 | 20 | 30 | 40 | 60 | Plant response rating, Pigweed [4, 23]: 0; Plant response rating, Ragweed [5, 23]: 0; Plant response rating, Ryegrass, Italian [6, 23]: 0; Plant response rating, Galium [7, 24]: 0; Plant response rating, Kochia (Kochia (Kochia scoparia) [8]; [24]): 0; Plant response rating, Blackgrass [10, 21]: 30; Plant response rating, Corn (corn (Zea mays); [24]): 0; Plant response rating, Foxtail, Giant [11, 24]: 80; Plant response rating, Pigweed [12, 24]: 0; Plant response rating, Ragweed [13, 24]: 30; Plant response rating, Ryegrass, Italian [14, 24]: 20; Plant response rating, Wheat [15, 24]: 0; Plant response rating, Barnyardgrass ([16]; 250 g ai/ha): 35; Plant response rating, Ducksalad ([17]; 250 g ai/ha): 80; Plant response rating, Rice (rice (Oryra sativa); 250 g ai/ha): 0; Plant response rating, Sedge, Umbrella ([18]; 250 g ai/ha): 0 |
| COC(=O)c1ccccc1NC(=O)C1C(=O)NCC1c1cccc(C(F)(F)F)c1 (racemic) [Compound 705] |  | 0 |  | 0 |  | 0 | 0 | 0 | 0 | 0 | 0 |  | 0 | 0 | 0 | 0 | 0 | 0 | 0 | 0 | Plant response rating, Kochia (Kochia (Kochia scoparia) [1]; [23]): 0; Plant response rating, Barnyardgrass [2, 23]: 0; Plant response rating, Foxtail, Giant [3, 23]: 0; Plant response rating, Pigweed [4, 23]: 0; Plant response rating, Ragweed [5, 23]: 0; Plant response rating, Ryegrass, Italian [6, 23]: 0; Plant response rating, Galium [7, 24]: 0; Plant response rating, Kochia (Kochia (Kochia scoparia) [8]; [24]): 0; Plant response rating, Barnyardgrass [9, 24]: 0; Plant response rating, Blackgrass [10, 24]: 0; Plant response rating, Corn (corn (Zea mays); [24]): 0; Plant response rating, Foxtail, Giant [11, 24]: 0; Plant response rating, Pigweed [12, 24]: 0; Plant response rating, Ragweed [13, 24]: 0; Plant response rating, Ryegrass, Italian [14, 24]: 0; Plant response rating, Wheat [15, 24]: 0; Plant response rating, Barnyardgrass ([16]; 500 g ai/ha): 0; Plant response rating, Ducksalad ([17]; 500 g ai/ha): 0; Plant response rating, Rice (rice (Oryra sativa); 500 g ai/ha): 0; Plant response rating, Sedge, Umbrella ([18]; 500 g ai/ha): 0 |
